Data reported in US12173018B2, “Penicillin-binding protein inhibitors” (priority 2018, dated 2024).
In brackets after ≈: the same amount, converted by molar mass. Where two headings read alike, the source gives them in different places.

How the values were obtained:
[1] = system: K. pneumoniae 848844; assay: microbe, parasite or virus in culture; type: cell-based, Klebsiella pneumoniae; settings: Klebsiella pneumoniae; K. pneumoniae 848844 producing SHV-11 and KPC-2; read-out: MIC K. pneumoniae 848844
Summary of the method: (§1)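 CLSI broth microdilution in cation-supplemented Mueller-Hinton broth; 2-fold compound dilutions inoculated at 5×10^5 CFU/mL from a 3-5 h log-phase culture. Plates incubated 16-20 hours at 37° C; MIC read visually as lowest concentration with no growth.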

[2] = system: A. baumannii ATCC 19606; assay: Broth microdilution MIC, A. baumannii ATCC 19606; type: cell-based; settings: Acinetobacter baumannii, ATCC19606; A. baumannii ATCC 19606, broth microdilution; read-out: MIC A. baumannii ATCC 19606
Experimental: (§2) To determine the ability of test compounds to potentiate the inhibition of the growth of bacterial strains, classic cell based broth microdilution minimum inhibitory concentration (MIC) assays were employed. MIC assays are performed according to CLSI methods except where otherwise noted (CLSI, 2011 and CLSI, 2009). The reference type strain E. coli ATCC 25922, the wild-type parent strain E. coli AG100, the hyper-permeable E. coli 901C and E. coli D22 and the E. coli AG100A strain lacking the acrAB efflux pump encoding genes were used to determine the ability of the PBP inhibitors to penetrate the outer membrane of gram-negative bacteria and inhibit bacterial growth. […] The P. aeruginosa PAO1, P. aeruginosa ATCC 27853 and A. baumannii ATCC 19606, along with the hyper-permeable P. aeruginosa ATCC 35151 and an engineered efflux pump-compromised strain of P. aeruginosa (ΔmexAB-oprM) were used to determine the ability of PBP inhibitors to penetrate the outer membrane of P. aeruginosa and A. baumannii and assess antibacterial activity against these important gram-negative organisms.
(§3) Briefly, cryo-preserved bacterial cultures of challenge strains are streaked for isolation on appropriate agar medium, in this case Mueller Hinton II agar. Following incubation to allow growth of the colonies, plates are sealed with parafilm and stored refrigerated for up to two weeks. For preparation of assay inoculum and to ensure low variability, at least 5 colonies are picked from the agar plates with an inoculating loop and aseptically transferred to a culture tube containing 3 mL of Mueller-Hinton Broth (supplemented with divalent cations to required levels based on Manufacturers' certification). The broth culture is grown for 3-5 hours at 37° C. with shaking at 200 rpm. Meanwhile, 2-fold serial dilutions of test compounds are conducted in a 96 well plate with a final volume of 75 μL per well at 2-fold the final desired concentration. After the dilution plates are set up the growing cultures are then diluted in a cuvette containing MH II broth and the optical density is measured at 600 nm. The Inoculum is diluted such that 75 μL of this culture in Mueller-Hinton Broth results in a starting bacterial concentration of 5×10^5 CFU/mL when added to the dilution plates. The plates are incubated for 16-20 hours at 37° C. The MIC values are read visually as the lowest concentration well with no bacterial growth.

[3] = system: P. aeruginosa (ΔmexAB-oprM); assay: microbe, parasite or virus in culture; type: cell-based; settings: Pseudomonas aeruginosa, read-out: MIC P. aeruginosa ΔmexAB-OprM
Summary of the method: as §1

[4] = system: K. pneumoniae UMM; assay: microbe, parasite or virus in culture; type: cell-based; settings: Klebsiella pneumoniae; K. pneumoniae UMM producing SHV-5 and KPC-2; read-out: MIC K. pneumoniae UMM
Summary of the method: as §1

[5] = system: E. coli AG100A; assay: microbe, parasite or virus in culture; type: cell-based; settings: Escherichia coli, read-out: MIC E. coli AG100A
Summary of the method: as §1

[6] = system: K. pneumoniae SI-117; assay: microbe, parasite or virus in culture; type: cell-based; settings: Klebsiella pneumoniae, SI117, read-out: MIC K. pneumoniae SI-117
Summary of the method: as §1

[7] = system: E. coli D22; assay: microbe, parasite or virus in culture; type: cell-based; settings: Escherichia coli; hyper-permeable E. coli D22, broth microdilution; read-out: MIC E. coli D22
Summary of the method: as §1

[8] = system: E. coli 901C; assay: microbe, parasite or virus in culture; type: cell-based; settings: Escherichia coli; hyper-permeable E. coli 901C, broth microdilution; read-out: MIC E. coli 901C
Summary of the method: as §1

[9] = system: P. aeruginosa ATCC 35151; assay: microbe, parasite or virus in culture; type: cell-based; settings: Pseudomonas aeruginosa, ATCC35151; hyper-permeable P. aeruginosa ATCC 35151; read-out: MIC P. aeruginosa ATCC 35151
Summary of the method: as §1

[10] = system: P. aeruginosa PAO1; assay: Broth microdilution MIC, P. aeruginosa PAO1; type: cell-based; settings: Pseudomonas aeruginosa
Experimental: as §2, §3

[11] = system: E. coli ATCC 25922; assay: Broth microdilution MIC, E. coli ATCC 25922; type: cell-based; settings: Escherichia coli, ATCC25922; E. coli ATCC 25922, broth microdilution; read-out: MIC E. coli 25922
Summary of the method: as §1

[12] = target: E. coli PBP3 (Escherichia coli (strain K12), UniProt P0AD68); assay: E. coli PBP3 Bocillin-FL fluorescence polarization competition binding assay
E. coli PBP3, sequence (P0AD68 whole entry): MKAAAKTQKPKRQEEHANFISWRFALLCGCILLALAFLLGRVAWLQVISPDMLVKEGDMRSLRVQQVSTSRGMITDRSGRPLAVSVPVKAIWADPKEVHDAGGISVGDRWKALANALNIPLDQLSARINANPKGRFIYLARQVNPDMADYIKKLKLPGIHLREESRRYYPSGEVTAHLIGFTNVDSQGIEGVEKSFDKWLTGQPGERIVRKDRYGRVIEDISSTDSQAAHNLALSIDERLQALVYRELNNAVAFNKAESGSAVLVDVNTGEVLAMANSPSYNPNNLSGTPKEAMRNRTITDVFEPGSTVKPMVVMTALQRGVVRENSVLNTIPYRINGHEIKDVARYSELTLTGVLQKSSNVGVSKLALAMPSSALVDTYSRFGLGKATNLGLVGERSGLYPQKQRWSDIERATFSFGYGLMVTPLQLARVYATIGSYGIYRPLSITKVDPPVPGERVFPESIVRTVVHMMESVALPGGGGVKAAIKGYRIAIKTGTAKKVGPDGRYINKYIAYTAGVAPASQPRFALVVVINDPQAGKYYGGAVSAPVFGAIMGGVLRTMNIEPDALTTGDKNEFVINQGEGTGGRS
Summary of the method: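 This was a fluorescence polarization competition with fluorescent penicillin Bocillin-FL (0.1 μM final), read at 490/520 nm for 60 min immediately after its addition. The buffer was Hepes pH 8.0 with 300 mM NaCl and 5% glycerol, containing 1.5 μM PBP and test inhibitor up to 1000 μM. Potency is expressed as EC50 for reducing probe binding.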

[13] = system: E. coli AG100; assay: Broth microdilution MIC, E. coli AG100 (wild-type parent); type: cell-based; settings: Escherichia coli; wild-type parent E. coli AG100, broth microdilution; read-out: MIC E. coli AG100
Summary of the method: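 Starting inoculum of 5×10^5 CFU/mL, from colonies grown 3-5 h in Mueller-Hinton broth with divalent cations, added to two-fold compound dilution series.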

[14] = system: engineered strain of Escherichia coli harboring CTX-M15; assay: microbe, parasite or virus in culture; type: cell-based; settings: Escherichia coli, read-out: Microbiological Activity (MIC in mg/L), E. coli DH5α/pLBII-CTX-M15, engineered strain producing CTX-M15
[15] = P. aeruginosa PAO1, broth microdilution, read-out: MIC P. aeruginosa PAO1

Compound | MIC [1] | MIC [2] | MIC [3] | MIC [4] | MIC [5] | MIC [6] | MIC [7] | MIC [8] | MIC [9] | MIC [10, 15] | MIC [11] | EC50 [12] | MIC [13] | MIC ([10]; PAO1, read-out: MIC P. aeruginosa PAO1) | MIC [14] | EC50 ([12]; fluorescence polarization competition binding with Bocillin-FL, read-out: E. coli K12 PBP3 Potency)
O=C(O)c1cccc2c1OB(O)[C@@H](NC(=O)C(NC(=O)N1C[C@@H]3CCCN3C(=O)C1=O)c1ccc(O)c(O)c1Cl)C2 (stereo partly drawn) [Example 222, (3R)-3-(2-(2-chloro-3,4-dihydroxyphenyl)-2-((S)-3,4-dioxooctahydropyrrolo[1,2-a]pyrazine-2-carboxamido)acetamido)-2-hydroxy-3,4-dihydro-2H-benzo[e][1,2]oxaborinine-8-carboxylic acid] | > 128 µg/mL | 32 to 64 µg/mL | < 0.25 µg/mL | 32 to 64 µg/mL | 32 to 64 µg/mL | > 128 µg/mL | > 128 µg/mL | 32 to 64 µg/mL | < 0.25 µg/mL | 8 to 16 µg/mL | > 128 µg/mL | 30 to 500 µM | 32 to 64 µg/mL |  |  | 
CCN1CCN(C(=O)NC(C(=O)N[C@H]2Cc3cccc(C(=O)O)c3OB2O)c2ccc(OC)nc2Cl)C(=O)C1=O (stereo partly drawn) [Example 65, (3R)-3-(2-(2-chloro-6-methoxypyridin-3-yl)-2-(4-ethyl-2,3-dioxopiperazine-1-carboxamido)acetamido)-2-hydroxy-3,4-dihydro-2H-benzo[e][1,2]oxaborinine-8-carboxylic acid] |  |  | 32 to 64 µg/mL |  |  |  |  |  | 8 to 16 µg/mL |  |  |  |  | > 128 µg/mL | 128 to 256 mg/L (≈ 223 to 446 µM) | 
NCCN1CCN(C(=O)N[C@H](C(=O)N[C@H]2Cc3ccc(F)c(C(=O)O)c3OB2O)c2ncc(O)cc2F)C(=O)C1=O [Example 231, (R)-3-((S)-2-(4-(2-aminoethyl)-2,3-dioxopiperazine-1-carboxamido)-2-(3-fluoro-5-hydroxypyridin-2-yl)acetamido)-7-fluoro-2-hydroxy-3,4-dihydro-2H-benzo[e][1,2]oxaborinine-8-carboxylic acid] | 32 to 64 µg/mL | > 128 µg/mL | 8 to 16 µg/mL | 32 to 64 µg/mL | 8 to 16 µg/mL | 32 to 64 µg/mL | 8 to 16 µg/mL | 2 to 4 µg/mL | 0.5 to 1 µg/mL | > 128 µg/mL | 32 to 64 µg/mL | 30 to 500 µM | 32 to 64 µg/mL |  |  | 
O=C(O)c1cccc2c1OB(O)[C@@H](NC(=O)C(NC(=O)N1C[C@H]3CCCN3C(=O)C1=O)c1ccc(O)c(O)c1Cl)C2 (stereo partly drawn) [Example 232, (3R)-3-(2-(2-chloro-3,4-dihydroxyphenyl)-2-((R)-3,4-dioxooctahydropyrrolo[1,2-a]pyrazine-2-carboxamido)acetamido)-2-hydroxy-3,4-dihydro-2H-benzo[e][1,2]oxaborinine-8-carboxylic acid] | 8 to 16 µg/mL | > 128 µg/mL | < 0.25 µg/mL | 32 to 64 µg/mL | 8 to 16 µg/mL | 32 to 64 µg/mL | 8 to 16 µg/mL | 8 to 16 µg/mL | < 0.25 µg/mL | 32 to 64 µg/mL | > 128 µg/mL | 30 to 500 µM | 8 to 16 µg/mL |  |  | 
CCN1CCN(C(=O)NC(C(=O)N[C@H]2Cc3ccc(F)c(C(=O)O)c3OB2O)c2ccc(O)cn2)C(=O)C1=O (stereo partly drawn) [Example 128, (3R)-3-(2-(4-ethyl-2,3-dioxopiperazine-1-carboxamido)-2-(5-hydroxypyridin-2-yl)acetamido)-7-fluoro-2-hydroxy-3,4-dihydro-2H-benzo[e][1,2]oxaborinine-8-carboxylic acid] | 32 to 64 µg/mL | > 128 µg/mL | 8 to 16 µg/mL | 8 to 16 µg/mL | 2 to 4 µg/mL | 8 to 16 µg/mL | 2 to 4 µg/mL | 0.5 to 1 µg/mL | 0.5 to 1 µg/mL | > 128 µg/mL | 32 to 64 µg/mL | 30 to 500 µM | 8 to 16 µg/mL |  |  | 
CCN1CCN(C(=O)N[C@@H](C(=O)N[C@H]2Cc3cccc(C(=O)O)c3OB2O)c2ccc(S(N)(=O)=O)c(OC)c2)C(=O)C1=O [Example 169, (R)-3-((R)-2-(4-ethyl-2,3-dioxopiperazine-1-carboxamido)-2-(3-methoxy-4-sulfamoylphenyl)acetamido)-2-hydroxy-3,4-dihydro-2H-benzo[e][1,2]oxaborinine-8-carboxylic acid] | > 128 µg/mL | > 128 µg/mL | 8 to 16 µg/mL | > 128 µg/mL | 8 to 16 µg/mL | > 128 µg/mL | 2 to 4 µg/mL | < 0.25 µg/mL | 0.5 to 1 µg/mL | > 128 µg/mL | 32 to 64 µg/mL | 30 to 500 µM | 32 to 64 µg/mL |  |  | 
CCN1CCN(C(=O)NC(C(=O)N[C@H]2Cc3c(F)cc(F)c(C(=O)O)c3OB2O)c2ccc(O)c(O)c2Cl)C(=O)C1=O (stereo partly drawn) [Example 185, (3R)-3-(2-(2-chloro-3,4-dihydroxyphenyl)-2-(4-ethyl-2,3-dioxopiperazine-1-carboxamido)acetamido)-5,7-difluoro-2-hydroxy-3,4-dihydro-2H-benzo[e][1,2]oxaborinine-8-carboxylic acid] | 0.5 to 1 µg/mL | > 128 µg/mL | 0.5 to 1 µg/mL | 2 to 4 µg/mL | 2 to 4 µg/mL | 2 to 4 µg/mL | 2 to 4 µg/mL | 0.5 to 1 µg/mL | < 0.25 µg/mL | > 128 µg/mL | 8 to 16 µg/mL | 30 to 500 µM | 2 to 4 µg/mL |  |  | 
CCN1CCN(C(=O)NC(C(=O)N[C@H]2Cc3cccc(C(=O)O)c3OB2O)c2ccc(S(N)(=O)=O)cc2F)C(=O)C1=O (stereo partly drawn) [Example 203, (3R)-3-(2-(4-ethyl-2,3-dioxopiperazine-1-carboxamido)-2-(2-fluoro-4-sulfamoylphenyl)acetamido)-2-hydroxy-3,4-dihydro-2H-benzo[e][1,2]oxaborinine-8-carboxylic acid] | > 128 µg/mL | > 128 µg/mL | 8 to 16 µg/mL | 32 to 64 µg/mL | 2 to 4 µg/mL | > 128 µg/mL | 2 to 4 µg/mL | < 0.25 µg/mL | 0.5 to 1 µg/mL | > 128 µg/mL | 32 to 64 µg/mL |  | 32 to 64 µg/mL |  |  | < 30 µM
